# Results from patent US9409884B2 (Rigel Pharmaceuticals, Inc., priority 2012, dated 2016).
# Target: AMPK
# Test: AMPK activation, enzyme-linked immunosorbent assay
# Format: biochemical
# Conditions: Table 8, compounds of Table 1
# How it was run: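 AMPK activation by test compounds was measured by enzyme-linked immunosorbent assay.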
row,EC50,Compound
1,< 100 nM,"O=C(NC1CCN(Cc2ccc(F)cc2)CC1)c1cc2ccc(OC3CCN(c4ccc(OC(F)(F)F)cc4)CC3)cc2o1 [Compound 1-94, N-(1-(4-fluorobenzyl)piperidin-4-yl)-6-(1-(4-(trifluoromethoxy)phenyl)piperidin-4-yloxy)benzofuran-2-carboxamide]"
2,500 to 1000 nM,"O=C(NC1CCN(Cc2ccc3ccccc3c2)CC1)c1ccc(OC2CCN(c3ccc(C(F)(F)F)cc3)CC2)cn1 [Compound 1-37, N-(1-(naphthalen-2-ylmethyl)piperidin-4-yl)-5-(1-(4-(trifluoromethyl)phenyl)piperidin-4-yloxy)picolinamide]"
3,< 100 nM,"N#Cc1ccc(CN2CC[C@H](NC(=O)c3ccc(OC4CCN(c5ccc(C(F)(F)F)cc5)CC4)cn3)C2)cc1 [Compound 1-31, (S)-N-(1-(4-cyanobenzyl)pyrrolidin-3-yl)-5-(1-(4-(trifluoromethyl)phenyl)piperidin-4-yloxy) picolinamide]"
4,< 100 nM,"N#Cc1ccc(CN2CCC(NC(=O)c3cc4ccc(OC5CCN(c6ccc(C(F)(F)F)cc6)CC5)cc4s3)CC2)cc1 [Compound 1-144, N-(1-(4-cyanobenzyl)piperidin-4-yl)-6-(1-(4-(trifluoromethyl)phenyl)piperidin-4-yloxy)benzo [b]thiophene-2-carboxamide]"
5,> 10000 nM,"O=C(NC1CCNCC1)c1cc2cc(OC3CCN(c4ccc(C(F)(F)F)cc4)CC3)ccc2o1 [Compound 1-86, N-(piperidin-4-yl)-5-(1-(4-(trifluoromethyl)phenyl)piperidin-4-yloxy)benzofuran-2-carboxamide]"
6,< 100 nM,"N#Cc1ccc(CN2CCC(Oc3ccc4oc(C(=O)NC5CCN(Cc6ccccc6)CC5)cc4c3)CC2)cc1 [Compound 1-70, N-(1-benzylpiperidin-4-yl)-5-(1-(4-cyanobenzyl)piperidin-4-yloxy)benzofuran-2-carboxamide]"
7,100 to 500 nM,"O=C(NC1CCNCC1)c1cc2ccc(OC3CCN(c4ccc(OC(F)(F)F)cc4)CC3)cc2o1 [Compound 1-83, N-(piperidin-4-yl)-6-(1-(4-(trifluoromethoxy)phenyl)piperidin-4-yloxy)benzofuran-2-carboxamide]"
8,1000 to 5000 nM,"O=S(=O)(NC1CCNCC1)c1ccc(OC2CCN(c3ccc(C(F)(F)F)cc3)CC2)nc1 [Compound 1-55, N-(piperidin-4-yl)-6-(1-(4-(trifluoromethyl)phenyl)piperidin-4-yloxy)pyridine-3-sulfonamide]"

# Same assay, conditions: Table 9, compounds of Table 2
row,EC50,Compound
1,> 100000 nM,"NC(=O)c1ccc(CN2CCc3[nH]c4ccc(C(=O)NC5CCN(Cc6ccncc6)CC5)cc4c3C2)cc1 [Compound 2-45, 2-(4-carbamoylbenzyl)-N-(1-(pyridin-4-ylmethyl)piperidin-4-yl)-2,3,4,5-tetrahydro-1H-pyrido[4,3-b]indole-8-carboxamide]"

# Same assay, conditions: Table 10, compounds of Table 3
row,EC50,Compound
1,100 to 1000 nM,"N#Cc1ccc(CN2CC3CC2CN3C(=O)c2nc3ccc(OC4CCN(c5ccc(C(F)(F)F)cc5)CC4)cc3o2)cc1 (centres unmarked) [Compound 3-10, 4-((5-(6-(1-(4-(trifluoromethyl)phenyl)piperidin-4-yloxy)benzo[d]oxazole-2-carbonyl)-2,5-diazabicyclo[2.2.1]heptan-2-yl)methyl)benzonitrile]"
2,< 100 nM,"O=C(NC1CCN(C(=O)c2ccc(F)cc2)CC1)c1nc2ccc(OC3CCN(c4ccc(C(F)(F)F)cc4)CC3)cc2o1 [Compound 3-4, N-(1-(4-fluorobenzoyl)piperidin-4-yl)-6-(1-(4-(trifluoromethyl)phenyl)piperidin-4-yloxy)benzo[d]oxazole-2-carboxamide]"
3,100 to 1000 nM,"O=C(NC1CCN(Cc2ccncc2)CC1)c1nc2ccc(OC3CCN(c4ccc(C(F)(F)F)cc4)CC3)cc2s1 [Compound 3-15, N-(1-(pyridin-4-ylmethyl)piperidin-4-yl)-6-(1-(4-(trifluoromethyl)phenyl)piperidin-4-yloxy)benzo[d]thiazole-2-carboxamide]"

# Same assay, conditions: Table 12, compounds of Table 5
row,EC50,Compound
1,< 1000 nM,"O=C(NC1CCN(Cc2ccccc2)CC1)c1ccc(OC2CCN(Cc3ccc(F)c(F)c3)CC2)c(F)c1 [Compound 5-69, N-(1-benzylpiperidin-4-yl)-4-(1-(3,4-difluorobenzyl)piperidin-4-yloxy)-3-fluorobenzamide]"
2,< 1000 nM,"COc1ccc(CN2CCC(NC(=O)c3cccc(OC4CCN(Cc5ccc(Oc6ccc(C#N)cc6)cc5)CC4)c3)CC2)cc1 [Compound 5-113, 3-(1-(4-(4-cyanophenoxy)benzyl)piperidin-4-yloxy)-N-(1-(4-methoxybenzyl)piperidin-4-yl)benzamide]"
3,< 1000 nM,"O=C(NC1CCN(Cc2ccccc2)CC1)c1ccc(OC2CCN(c3ccc(C(F)(F)F)cc3)CC2)cc1Cl [Compound 5-47, N-(1-benzylpiperidin-4-yl)-2-chloro-4-(1-(4-(trifluoromethyl)phenyl)piperidin-4-yloxy)benzamide]"
4,< 1000 nM,"CC(C)(C)C(=O)N1CCC(Oc2ccc(C(=O)NC3CCN(Cc4ccccc4)CC3)cc2Cl)CC1 [Compound 5-91, N-(1-benzylpiperidin-4-yl)-3-chloro-4-(1-pivaloylpiperidin-4-yloxy)benzamide]"
5,< 1000 nM,"N#Cc1ccc(CN2CCC(NC(=O)c3cccc(OC4CCN(Cc5ccc(Oc6ccccc6)cc5)CC4)c3)CC2)cc1 [Compound 5-117, N-(1-(4-cyanobenzyl)piperidin-4-yl)-3-(1-(4-phenoxybenzyl)piperidin-4-yloxy)benzamide]"
6,< 1000 nM,"CC(C)(C)C(=O)N1CCC(NC(=O)c2ccc(OC3CCN(c4ccc(C(F)(F)F)cc4)CC3)c(F)c2)CC1 [Compound 5-30, 3-fluoro-N-(1-pivaloylpiperidin-4-yl)-4-(1-(4-(trifluoromethyl)phenyl)piperidin-4-yloxy)benzamide]"
7,< 1000 nM,"O=C(NC1CCN(Cc2ccccc2)CC1)c1ccc(OC2CCN(C(=O)c3ccc(C(F)(F)F)cc3)CC2)c(Cl)c1 [Compound 5-18, N-(1-benzylpiperidin-4-yl)-3-chloro-4-(1-(4-(trifluoromethyl)benzoyl)piperidin-4-yloxy)benzamide]"
8,< 1000 nM,"O=C(NC1CCN(Cc2ccccc2)CC1)c1cccc(OC2CCN(c3ccccn3)CC2)c1 [Compound 5-86, N-(1-benzylpiperidin-4-yl)-3-(1-(pyridin-2-yl)piperidin-4-yloxy)benzamide]"
9,< 1000 nM,"O=C(NC1CCN(Cc2ccccc2)CC1)c1ccc(OC2CCN(Cc3ccc(C(F)(F)F)cc3)CC2)c(Cl)c1 [Compound 5-56, N-(1-benzylpiperidin-4-yl)-3-chloro-4-(1-(4-(trifluoromethyl)benzyl)piperidin-4-yloxy)benzamide]"
10,< 1000 nM,"N#Cc1ccc(CN2CCC(Oc3ccc(C(=O)NC4CCN(Cc5ccncc5)CC4)cc3)CC2)cc1 [Compound 5-83, 4-(1-(4-cyanobenzyl)piperidin-4-yloxy)-N-(1-(pyridin-4-ylmethyl)piperidin-4-yl)benzamide]"

# Same assay, conditions: Table 13, compounds of Table 6
row,EC50,Compound
1,< 100 nM,"Cc1cc(CN2CCN(C(=O)c3ccc4oc(C(=O)NC5CCN(Cc6ccc(C#N)cc6)CC5)cc4c3)CC2)ccc1S(C)(=O)=O [Compound 6-103, N-(1-(4-cyanobenzyl)piperidin-4-yl)-5-(4-(3-methyl-4-(methylsulfonyl)benzyl)piperazine-1-carbonyl) benzofuran-2-carboxamide]"
2,100 to 1000 nM,"N#Cc1ccc(CN2CCC(NC(=O)c3cc4cc(NC(=O)c5ccc(Oc6ccc(F)cc6)nc5)ccc4o3)CC2)cc1 [Compound 6-64, N-(2-(1-(4-cyanobenzyl)piperidin-4-ylcarbamoyl)benzofuran-5-yl)-6-(4-fluorophenoxy)nicotinamide]"
3,< 100 nM,"CS(=O)(=O)c1ccc(CN2CCN(C(=O)c3ccc4oc(C(=O)NC5CCN(Cc6ccc(C#N)cc6)CC5)cc4c3)CC2)cc1C(F)(F)F [Compound 6-105, N-(1-(4-cyanobenzyl)piperidin-4-yl)-5-(4-(4-(methylsulfonyl)-3-(trifluoromethyl)benzyl)piperazine-1-carbonyl) benzofuran-2-carboxamide]"
4,100 to 1000 nM,"N#Cc1ccc(CN2CCC(NC(=O)c3cc4cc(NC(=O)C5CCN(Cc6ccc(F)c(F)c6)CC5)ccc4o3)CC2)cc1 [Compound 6-43, N-(2-(1-(4-cyanobenzyl)piperidin-4-ylcarbamoyl)benzofuran-5-yl)-1-(3,4-difluorobenzyl)piperidine-4-carboxamide]"
5,100 to 1000 nM,"CS(=O)(=O)c1ccc(CN2CCN(C(=O)c3ccc4oc(C(=O)NC5CCN(Cc6ccc(OC(F)(F)F)cc6)CC5)cc4c3)CC2)cc1 [Compound 6-95, 5-(4-(4-(methylsulfonyl)benzyl)piperazine-1-carbonyl)-N-(1-(4-(trifluoromethoxy)benzyl)piperidin-4-yl)benzofuran-2-carboxamide]"
6,< 100 nM,"COc1ccc(CN2CCC(NC(=O)c3cc4cc(C(=O)N5CCN(Cc6ccc(S(C)(=O)=O)c(C(F)(F)F)c6)CC5)ccc4o3)CC2)cc1F [Compound 6-132, N-(1-(3-fluoro-4-methoxybenzyl)piperidin-4-yl)-5-(4-(4-(methylsulfonyl)-3-(trifluoromethyl)benzyl)piperazine-1-carbonyl) benzofuran-2-carboxamide]"
7,< 100 nM,"N#Cc1ccc(CN2CCC(NC(=O)c3cc4cc(C(=O)N5CCN(c6ccc(C#N)cc6)CC5)ccc4o3)CC2)cc1 [Compound 6-107, N-(1-(4-cyanobenzyl)piperidin-4-yl)-5-(4-(4-cyanophenyl)piperazine-1-carbonyl)benzofuran-2-carboxamide]"
8,< 100 nM,"CS(=O)(=O)c1cccc(CN2CCN(C(=O)c3ccc4oc(C(=O)NC5CCN(Cc6ccc(-n7cccn7)cc6)CC5)cc4c3)CC2)c1 [Compound 6-153, N-(1-(4-(1H-pyrazol-1-yl)benzyl)piperidin-4-yl)-5-(4-(3-(methylsulfonyl)benzyl)piperazine-1-carbonyl) benzofuran-2-carboxamide]"

# Same assay, conditions: Table 14, compounds of Table 7
row,EC50,Compound
1,< 1000 nM,"CS(=O)(=O)c1ccc(OC2CCN(c3ccc(C(=O)NC4CCN(Cc5ccc(C#N)cc5)CC4)cn3)CC2)cc1 [Compound 7-80, N-(1-(4-cyanobenzyl)piperidin-4-yl)-6-(4-(4-(methylsulfonyl)phenoxy)piperidin-1-yl)nicotinamide]"
2,< 1000 nM,"COc1ccc(C(=O)C2CCN(C(=O)c3ccc(C(=O)NC4CCN(Cc5ccc(OC(F)(F)F)cc5)CC4(C)C)cn3)CC2)cc1 (centres unmarked) [Compound 7-85, N-(3,3-dimethyl-1-(4-(trifluoromethoxy)benzyl)piperidin-4-yl)-6-(4-(4-methoxybenzoyl)piperidine-1-carbonyl)nicotinamide]"
